Assay results taken from patent US8519154B2, “Method for treatment of bronchial asthma” (Council of Scientific & Industrial Research, priority 2011, dated 2013).

System: rats
Assay: Bile secretion
Format: in vivo
Experimental: Rats were anaesthetized with urethane (25% w/v; 0.6 ml/100 g bw, ip). A catheter was placed in the jugular vein for Compound I administration. Abdominal cavity was opened by midline incision and the common bile duct was cannulated to measure the biliary secretion which was collected over 2 hours duration. The total bile excreted was compared between control (untreated) and Compound I treated rats [Shetler, T., Bendele, A., Buening, M., Clemens, J., Colbert, W., Deldar, A., Helton, D., Mc Grath J., Shannon, H., Turk, J., Williams, P., General Pharmacology of Loracarbef in Animals. Arzneim-Forsch./Drug Res. 43 (1993) 1-6].

COc1cc(C=O)cc2c1[nH]c1ccccc12 [Compound I, 1-methoxy-3-formyl-9H carbazole]
Bile (grams ± SEM) After (25 mg/kg i.v.): 1.390 ± 0.06 grams
Bile (grams ± SEM) Before (25 mg/kg i.v.): 1.285 ± 0.049 grams
Bile (grams ± SEM) After (50 mg/kg i.v.): 1.125 ± 0.125 grams
Bile (grams ± SEM) Before (50 mg/kg i.v.): 1.305 ± 0.145 grams
change in the mass of bile collected (25 and 50 mg/kg intravenously): no significant change in the mass of bile collected
